These results are taken from patent publication US20250041306A1, “TARGETED PROTEASE DEGRADATION (TED) PLATFORM” (EUBULUS BIOTHERAPEUTICS INC., priority 2021, published 2025).

Like-named read-outs stand apart in the source and are kept apart here. Numbered stars: 1 amine (or outer) side, 2 acyl side, 3 side chain; on linkers, the order of the positions; unused ones are H or OH. Bridge positions count the residues as written; N and C are the ends. Square brackets hold non-standard residues; d marks the D form. Peptide text beside a SMILES is read from it. I, II: the chains in the order shown. * marks the point of attachment. X1 = NC(=O)c1ccccc1Nc1nc(Nc2ccc(N3CCN(C(=O)NC4CCC(N(CCC#Cc5ccc6c(c5)CN(C5CCC(=O)NC5=O)C6=O)C(=O)OCCS*)CC4)CC3)cc2)ncc1Cl; X2 = NC(=O)c1ccccc1Nc1nc(Nc2ccc(N3CCN(C(=O)NC4CCC(N(CCC#Cc5ccc6c(c5)CN(C5CCC(=O)NC5=O)C6=O)*)CC4)CC3)cc2)ncc1Cl; Succinimide(1-C2H4CO,3-yl) = O=C1CC([*:1])C(=O)N1CCC(=O)[*:2]; PABC = O=C(OCc1ccc(N[*:1])cc1)[*:2]; Thr(ol) = C[C@@H](O)[C@H](N)CO

Data set [1] has as its system Human Small Cell Lung Cancer NCI-H82. The data set is described as follows: Cell proliferation experiment (Alarm blue), H82. Type of data set: cell-based. Put shortly: (§1)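 Log-phase cells in 96-well plates were exposed 72 h to compound in a 5-fold dilution series, duplicate wells. Viability was measured by Alamar blue fluorescence, and IC50 was derived from a fit using minimum, maximum and slope.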

Data set [2] relates to human gastric carcinoma cells N87. In words: Cell proliferation experiment (Alarm blue), N87. Type of data set: cell-based. Put shortly: as §1
The test system of data set [3] is Human Colon Cancer cells Colo205. The data set is described as follows: Cell proliferation experiment (Alarm blue), Colo205. Format: cell-based. Put shortly: as §1
For data set [4], the system named is Human Small Cell Lung Cancer H69. In words: Cell proliferation experiment (Alarm blue), H69. Format: cell-based. The procedure, abridged:
as §1

For data set [5], the system named is Human Colon Cancer HT-29. The data set is described as follows: Cell proliferation experiment (Alarm blue), HT-29. Type of data set: cell-based. Put shortly: as §1
The subject of data set [6] is human small cell lung cancer NCI-H82 xenograft tumor. In words: In vivo efficacy in nude mouse xenograft tumor model of human small cell lung cancer NCI-H82. Also noted: species or system BALB/c nude mice. Particulars: nude mice. How it is done:
Transplanted tumor cell line: human small cell lung cancer cell NCI-H82, derived from the American Type Culture Collection Center (ATCC, cryopreserved in liquid nitrogen in the laboratory). Under 5% CO2 and 37° C. culture conditions, cells were routinely cultured in RPMI-1640 culture medium containing 10% fetal bovine serum; they were passaged according to cell growth, with a passage ratio of 1:2 to 1:5.
Experimental animal: Female BALB/c nude mice (number: 65; age: 6-8 weeks) were purchased from Charles River and raised in the SPF animal room of Suzhou Shengsu New Pharmaceutical Development Co., Ltd. (3D Biooptima). The temperature is 20 to 25° C., and relative humidity is 40% to 70%, with bright light and dark light for 12 hours each; animals were free to drink and eat. After normal feeding for about 5 days, mice with good physical signs can be selected for this experiment after veterinary inspection. Before grouping, animals were identified at the base of tail using maker pens. After grouping, each animal was identified by ear clipping.
Animal model preparation: NCI-H82 cells at logarithmic growth phase were collected, the cells were resuspended in 50% serum-free RPMI-1640 medium and 50% Matrigel after counting. The concentration of cells was adjusted to […] cells/mL. […] After inoculation, the animal status and tumor growth were regularly observed, the tumor diameter was measured using a electronic vernier caliper, the data were entered into Excel to calculate the tumor volume. […] After the start of experiment, the tumor diameter was measured twice a week, the tumor volume was calculated, and the animal weight was weighed and recorded at the same time. […]
Preparation of UB-181322 sample: An appropriate amount of UB series sample was weighed and put it into a glass bottle; an appropriate volume of DMSO was added. […] The liquid was vortexed to mix evenly, with the proportions of DMSO, 30% Solutol aqueous solution and ultrapure water in the liquid being 5%, 20% and 75%, to obtain preparations with appropriate final concentrations, which are ready for use. […]

The mark [7] stands for this setting: H82 cells, 72 h culture, read-out: Anti cell proliferative activity EC50, H82.
Where [8] appears, read: N87 cells, 72 h culture, read-out: Anti cell proliferative activity EC50, N87.
Setting [9] is: Colo205 cells, 72 h culture, read-out: Anti cell proliferative activity EC50, Colo205.
The mark [10] stands for this setting: H69 cells, 72 h culture, read-out: Anti cell proliferative activity EC50, H69.
The mark [11] stands for this setting: HT-29 cells, 72 h culture, read-out: Anti cell proliferative activity EC50, HT-29.
Setting [12] is: injection 23 mg/kg once every two days (FIG. 3B).

What is called EC50 is the concentration at which the effect is half-maximal. Take `CC(C)[C@@H](NC(=O)CCOCCOCCOCCOCCOCCOCCOCCOCCN1C(=O)CC(SC[C@H](N)C(=O)N[C@H](Cc2ccccc2)C(=O)N[C@H]2CSSC[C@@H](C(=O)N[C@H](CO)[C@@H](C)O)NC(=O)[C@H]([C@@H](C)O)NC(=O)[C@H](CCCCN)NC(=O)[C@@H](Cc3c[nH]c4ccccc34)NC(=O)[C@H](Cc3ccccc3)NC2=O)C1=O)C(=O)N[C@@H](C)C(=O)Nc1ccc(COC(=O)N(CCC#Cc2ccc3c(c2)CN(C2CCC(=O)NC2=O)C3=O)[C@H]2CC[C@H](NC(=O)N3CCN(c4ccc(Nc5ncc(Cl)c(Nc6ccccc6C(N)=O)n5)cc4)CC3)CC2)cc1` (stereo partly shown) [UB-181322]: the EC50 is 312 nM in data set [1] (setting [7]); 470 nM in data set [2] (setting [8]); 384 nM in data set [3] (setting [9]); more than 1000 nM in data set [4] (setting [10]); more than 1000 nM in data set [5] (setting [11]). Moreover, in data set [6] (injection 23 mg/kg once every two days (FIG. 3A)), the “tumor inhibitory effect compared with blank group” value was “shows the effect of inhibiting tumor growth”. Besides, in data set [6] (setting [12]), the “mouse body weight during the administration period” value is “does not change significantly”. In data set [6] (setting [12]), the toxicity entry was “low”.

Take `CC[C@@H]1C(=O)N(C)c2cnc(Nc3ccc(-c4cn([C@H]5CC[C@@H](N(CCOCCC#Cc6cccc7c6CN(C6CCC(=O)NC6=O)C7=O)C(=O)OCCSSC[C@H](NC(=O)CC[C@H](NC(=O)c6ccc(NCc7cnc8nc(N)[nH]c(=O)c8n7)cc6)C(=O)O)C(=O)N[C@H](Cc6ccccc6)C(=O)N[C@H]6CSSC[C@@H](C(=O)N[C@H](CO)[C@@H](C)O)NC(=O)[C@H]([C@@H](C)O)NC(=O)[C@H](CCCCN)NC(=O)[C@@H](Cc7c[nH]c8ccccc78)NC(=O)[C@H](Cc7ccccc7)NC6=O)CC5)nn4)cc3OC)nc2N1C1CCCC1` (stereo partly shown) [UB-181339]: the EC50 in data set [1] (setting [7]) was 236 nM; in data set [2] (setting [8]), 456 nM; in data set [3] (setting [9]) it was 249 nM; in data set [4] (setting [10]), more than 1000 nM; in data set [5] (setting [11]), more than 1000 nM.

Consider `C[C@@H](O)[C@@H]1NC(=O)[C@H](CCCCN)NC(=O)[C@@H](Cc2c[nH]c3ccccc23)NC(=O)[C@H](Cc2ccccc2)NC(=O)[C@@H](NC(=O)[C@@H](Cc2ccccc2)NC(=O)[C@@H](N)CSC2CC(=O)N(CCC(=O)N[C@@H](CC(=O)O)C(=O)N[C@@H](CCCNC(=N)N)C(=O)N[C@@H](CC(=O)O)C(=O)N[C@@H](CC(=O)O)C(=O)N[C@@H](CSSCCOC(=O)N(CCC#Cc3ccc4c(c3)CN(C3CCC(=O)NC3=O)C4=O)C3CCC(NC(=O)N4CCN(c5ccc(Nc6ncc(Cl)c(Nc7ccccc7C(N)=O)n6)cc5)CC4)CC3)C(=O)O)C2=O)CSSC[C@@H](C(=O)N[C@H](CO)[C@@H](C)O)NC1=O` (stereo partly shown) [UB-181342] (I: H-C[dF]CF[dW]KTC[Thr(ol)] / II: DRDDC(X1)-OH; linker I:1-II:N via Succinimide(1-C2H4CO,3-yl); disulfide I:3-I:8), for which the EC50 in data set [1] (72 h) was 746 nM; in data set [2] (72 h) it was more than 1000 nM; in data set [3] (72 h) it was 847 nM; in data set [4] (72 h), more than 1000 nM; in data set [5] (72 h) it was more than 1000 nM.

In the case of `C[C@H](NC(=O)[C@H](CC(=O)O)NC(=O)[C@H](CC(=O)O)NC(=O)[C@H](CCCNC(=N)N)NC(=O)[C@H](CC(=O)O)NC(=O)CCN1C(=O)CC(SC[C@H](N)C(=O)N[C@@H](Cc2ccccc2)C(=O)N[C@H]2CSSC[C@@H](C(=O)N[C@H](CO)[C@@H](C)O)NC(=O)[C@H]([C@@H](C)O)NC(=O)[C@H](CCCCN)NC(=O)[C@@H](Cc3c[nH]c4ccccc34)NC(=O)[C@H](Cc3ccccc3)NC2=O)C1=O)C(=O)N[C@@H](CC(N)=O)C(=O)Nc1ccc(COC(=O)N(CCC#Cc2ccc3c(c2)CN(C2CCC(=O)NC2=O)C3=O)C2CCC(NC(=O)N3CCN(c4ccc(Nc5ncc(Cl)c(Nc6ccccc6C(N)=O)n5)cc4)CC3)CC2)cc1` (stereo partly shown) [UB-181343] (I: H-CFCF[dW]KTC[Thr(ol)] / II: DRDDAN[PABC]-X2; linker I:1-II:N via Succinimide(1-C2H4CO,3-yl); disulfide I:3-I:8), the EC50 in data set [1] (72 h) is 103 nM; in data set [2] (72 h) it was 305 nM; in data set [3] (72 h), 285 nM; in data set [4] (72 h), 738 nM; in data set [5] (72 h), more than 1000 nM.

For `C[C@H](NC(=O)[C@H](C)NC(=O)[C@H](CS(=O)(=O)O)NC(=O)CCN1C(=O)CC(SC[C@H](N)C(=O)N[C@H](Cc2ccccc2)C(=O)N[C@H]2CSSC[C@@H](C(=O)N[C@H](CO)[C@@H](C)O)NC(=O)[C@H]([C@@H](C)O)NC(=O)[C@H](CCCCN)NC(=O)[C@@H](Cc3c[nH]c4ccccc34)NC(=O)[C@H](Cc3ccccc3)CC2=O)C1=O)C(=O)N[C@@H](CC(N)=O)C(=O)Nc1ccc(COC(=O)N(CCC#Cc2ccc3c(c2)CN(C2CCC(=O)NC2=O)C3=O)C2CCC(NC(=O)N3CCN(c4ccc(Nc5ncc(Cl)c(Nc6ccccc6C(N)=O)n5)cc4)CC3)CC2)cc1` (stereo partly shown) [UB-181345], the EC50 in data set [1] (setting [7]) was 92.9 nM; in data set [2] (setting [8]) it was 300 nM; in data set [3] (setting [9]), 274 nM; in data set [4] (setting [10]), more than 1000 nM; in data set [5] (setting [11]), more than 1000 nM.
